Values quoted from earlier work in US20160133992A1, “DRYING OF ELECTROLYTE MIXTURES CONTAINING ACIDS WITH MOLECULAR SIEVES” (BASF SE, priority 2013, published 2016).
Like-named read-outs stand apart in the source and are kept apart here.

pKa | pKa (listed as compound of formula (b)) | Compound
−1,7 | – | O=S(=O)(O)CCCCO [4-hydroxy-1-butane sulfonic acid]
below 4 | – | CCCC(CCO)S(=O)(=O)O (stereo not shown) [1-Propyl-gamma-hydroxy propane sulfonic acid]
below 4 | – | O=S(=O)(O)CCCCCO [5-hydroxy-1-pentane sulfonic acid]
below 4 | – | CCCCCCCCC(CCCO)S(=O)(=O)O (stereo not shown) [1-Octyl-4-hydroxy-1-butane sulfonic acid]
below 4 | – | CCC(CCO)S(=O)(=O)O (stereo not shown) [1-Ethyl-gamma-hydroxy propane sulfonic acid]
below 4 | – | CC(CCO)S(=O)(=O)O (stereo not shown) [1-Methyl-gamma-hydroxy propane sulfonic acid]
below 4 | – | CCCCC(CCO)S(=O)(=O)O (stereo not shown) [1-Butyl-gamma-hydroxy propane sulfonic acid]
– | −1.49 | O=S(=O)(O)CCCO [gamma-hydroxy propane sulfonic acid]
below 4 | – | CC(CCCO)S(=O)(=O)O (stereo not shown) [1-Methyl-4-hydroxy-1-butane sulfonic acid]
below 4 | – | CCC(CCCO)S(=O)(=O)O (stereo not shown) [1-Ethyl-4-hydroxy-1-butane sulfonic acid]
